Results reported in article PMC5053573, “Structure-Based Design of Tetrahydroisoquinoline-7-carboxamides as Selective Discoidin Domain Receptor 1 (DDR1) Inhibitors” (Journal of Medicinal Chemistry, 2016).

Legend:
Assay in all cases: biochemical
Conditions in all cases: read-out: %Ctrl @ 1000nM
[1] = target: AAK1 (Homo sapiens, UniProt Q2M2I8)
[2] = target: ABL1(F317I)-phosphorylated (Homo sapiens, UniProt P00519, F317I)
[3] = target: ABL1(Q252H)-phosphorylated (Homo sapiens, UniProt P00519, Q252H)
[4] = target: ALK(L1196M) (Homo sapiens, UniProt Q9UM73, L1196M)
[5] = target: BMPR1B (Homo sapiens, UniProt O00238)
BMPR1B, sequence (O00238 whole entry): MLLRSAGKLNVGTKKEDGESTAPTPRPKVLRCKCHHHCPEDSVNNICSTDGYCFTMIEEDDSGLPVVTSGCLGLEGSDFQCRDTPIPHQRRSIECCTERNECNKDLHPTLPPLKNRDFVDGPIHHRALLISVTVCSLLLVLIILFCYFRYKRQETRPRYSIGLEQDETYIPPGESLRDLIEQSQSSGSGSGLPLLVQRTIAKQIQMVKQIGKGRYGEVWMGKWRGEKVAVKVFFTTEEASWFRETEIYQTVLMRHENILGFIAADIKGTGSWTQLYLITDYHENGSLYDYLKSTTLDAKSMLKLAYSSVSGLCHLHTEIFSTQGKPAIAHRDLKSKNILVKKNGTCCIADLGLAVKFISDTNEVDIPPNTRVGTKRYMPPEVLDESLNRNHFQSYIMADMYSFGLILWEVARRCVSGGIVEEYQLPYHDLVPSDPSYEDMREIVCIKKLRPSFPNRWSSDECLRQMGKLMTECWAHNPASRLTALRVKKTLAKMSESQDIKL

[6] = target: CAMK1 (Homo sapiens, UniProt Q14012)
[7] = target: CAMK4 (Homo sapiens, UniProt Q16566)
[8] = target: CLK4 (Homo sapiens, UniProt Q9HAZ1)
[9] = target: DAPK3 (Homo sapiens, UniProt O43293)
[10] = target: EPHB3 (Homo sapiens, UniProt P54753)
[11] = target: EPHB6 (Homo sapiens, UniProt O15197)
[12] = target: T1, ERK1 (Homo sapiens, UniProt P27361)
T1 construct: gene MAPK3

[13] = target: FER (Homo sapiens, UniProt P16591)
[14] = target: FLT3 (Homo sapiens, UniProt P36888)
[15] = target: FLT4 (Homo sapiens, UniProt P35916)
[16] = target: HIPK3 (Homo sapiens, UniProt Q9H422)
HIPK3, sequence (Q9H422 whole entry): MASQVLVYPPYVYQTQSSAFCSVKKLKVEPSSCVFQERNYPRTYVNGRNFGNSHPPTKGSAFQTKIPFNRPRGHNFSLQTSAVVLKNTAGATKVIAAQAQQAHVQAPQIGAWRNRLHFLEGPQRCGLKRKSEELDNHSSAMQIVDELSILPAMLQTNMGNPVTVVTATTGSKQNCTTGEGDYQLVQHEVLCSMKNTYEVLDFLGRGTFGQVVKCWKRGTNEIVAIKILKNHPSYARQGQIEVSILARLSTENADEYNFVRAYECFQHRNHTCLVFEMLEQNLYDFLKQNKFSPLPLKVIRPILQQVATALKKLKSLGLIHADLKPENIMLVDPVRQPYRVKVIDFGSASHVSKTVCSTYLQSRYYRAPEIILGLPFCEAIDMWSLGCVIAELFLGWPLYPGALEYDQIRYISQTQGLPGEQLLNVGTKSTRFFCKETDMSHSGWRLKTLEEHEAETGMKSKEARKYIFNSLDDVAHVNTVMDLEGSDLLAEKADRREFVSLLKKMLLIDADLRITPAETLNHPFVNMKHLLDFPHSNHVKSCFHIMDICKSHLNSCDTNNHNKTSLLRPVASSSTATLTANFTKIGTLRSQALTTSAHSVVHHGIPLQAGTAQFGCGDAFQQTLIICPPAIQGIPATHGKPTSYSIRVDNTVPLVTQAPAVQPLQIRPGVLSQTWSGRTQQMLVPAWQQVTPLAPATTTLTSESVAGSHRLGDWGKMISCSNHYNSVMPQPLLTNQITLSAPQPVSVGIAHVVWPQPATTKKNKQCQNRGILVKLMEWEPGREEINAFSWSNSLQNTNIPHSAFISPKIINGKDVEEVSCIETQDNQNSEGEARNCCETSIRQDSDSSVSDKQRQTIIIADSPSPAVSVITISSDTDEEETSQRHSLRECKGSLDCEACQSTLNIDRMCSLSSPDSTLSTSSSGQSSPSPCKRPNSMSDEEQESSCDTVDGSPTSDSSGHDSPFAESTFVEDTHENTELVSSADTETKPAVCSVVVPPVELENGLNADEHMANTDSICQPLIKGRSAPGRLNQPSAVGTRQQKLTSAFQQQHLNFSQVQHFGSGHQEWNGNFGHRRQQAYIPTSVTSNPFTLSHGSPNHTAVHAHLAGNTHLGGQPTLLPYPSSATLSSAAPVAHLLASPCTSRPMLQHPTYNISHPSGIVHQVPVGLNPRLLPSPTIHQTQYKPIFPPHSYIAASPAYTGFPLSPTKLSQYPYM

[17] = target: T2, IKK-epsilon (Homo sapiens, UniProt Q14164)
T2 construct: gene IKBKE
T2 sequence (Q14164 whole entry): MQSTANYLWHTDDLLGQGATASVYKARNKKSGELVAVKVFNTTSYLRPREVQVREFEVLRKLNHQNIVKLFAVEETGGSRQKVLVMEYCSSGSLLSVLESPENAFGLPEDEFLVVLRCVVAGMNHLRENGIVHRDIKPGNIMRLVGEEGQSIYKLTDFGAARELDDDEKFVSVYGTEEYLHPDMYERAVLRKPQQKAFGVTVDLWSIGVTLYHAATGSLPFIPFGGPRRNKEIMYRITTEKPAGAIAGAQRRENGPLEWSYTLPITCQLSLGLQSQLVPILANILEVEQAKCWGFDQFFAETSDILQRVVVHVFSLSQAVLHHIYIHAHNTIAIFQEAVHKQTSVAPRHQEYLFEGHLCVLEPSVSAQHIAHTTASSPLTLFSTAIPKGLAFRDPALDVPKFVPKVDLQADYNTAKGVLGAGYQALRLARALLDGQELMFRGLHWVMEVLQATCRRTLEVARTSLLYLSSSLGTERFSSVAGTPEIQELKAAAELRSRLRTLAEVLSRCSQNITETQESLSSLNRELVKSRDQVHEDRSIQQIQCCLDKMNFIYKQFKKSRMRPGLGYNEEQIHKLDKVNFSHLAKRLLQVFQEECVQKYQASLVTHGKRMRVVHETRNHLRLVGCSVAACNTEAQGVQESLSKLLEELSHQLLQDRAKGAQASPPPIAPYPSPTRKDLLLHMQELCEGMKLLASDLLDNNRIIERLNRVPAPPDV

[18] = target: T3, JNK1 (Homo sapiens, UniProt P45983)
T3 construct: gene MAPK8

[19] = target: T4, JNK3 (Homo sapiens, UniProt P53779)
T4 construct: gene MAPK10

[20] = target: KIT(D816V) (Homo sapiens, UniProt P10721, D816V)
KIT(D816V), sequence (P10721 whole entry D816V): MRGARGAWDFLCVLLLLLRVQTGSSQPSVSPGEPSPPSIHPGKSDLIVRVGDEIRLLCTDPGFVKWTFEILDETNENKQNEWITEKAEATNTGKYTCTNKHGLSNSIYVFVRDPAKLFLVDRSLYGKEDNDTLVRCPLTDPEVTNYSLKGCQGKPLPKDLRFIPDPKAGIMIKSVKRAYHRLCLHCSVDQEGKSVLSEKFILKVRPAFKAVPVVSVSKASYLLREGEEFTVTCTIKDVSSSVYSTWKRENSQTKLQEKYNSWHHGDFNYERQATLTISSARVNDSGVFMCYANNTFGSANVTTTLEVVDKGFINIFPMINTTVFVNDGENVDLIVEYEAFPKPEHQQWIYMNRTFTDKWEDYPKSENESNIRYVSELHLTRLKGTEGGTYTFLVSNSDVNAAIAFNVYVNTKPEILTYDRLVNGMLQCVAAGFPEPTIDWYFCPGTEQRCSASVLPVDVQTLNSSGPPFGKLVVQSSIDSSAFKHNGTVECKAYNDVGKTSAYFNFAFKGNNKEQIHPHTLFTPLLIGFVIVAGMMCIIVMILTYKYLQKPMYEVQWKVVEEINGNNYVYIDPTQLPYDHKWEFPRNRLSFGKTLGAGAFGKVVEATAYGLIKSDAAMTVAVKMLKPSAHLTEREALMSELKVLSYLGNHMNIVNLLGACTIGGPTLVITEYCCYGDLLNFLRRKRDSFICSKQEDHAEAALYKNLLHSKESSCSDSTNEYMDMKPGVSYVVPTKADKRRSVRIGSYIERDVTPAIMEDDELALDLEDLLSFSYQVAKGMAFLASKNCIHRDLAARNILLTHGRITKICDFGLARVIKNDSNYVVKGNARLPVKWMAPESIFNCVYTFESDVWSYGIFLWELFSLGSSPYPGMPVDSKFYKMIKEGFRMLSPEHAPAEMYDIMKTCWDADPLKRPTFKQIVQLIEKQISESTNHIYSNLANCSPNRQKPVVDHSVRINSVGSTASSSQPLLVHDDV

[21] = target: LRRK2 (Homo sapiens, UniProt Q5S007)
[22] = target: MAK (Homo sapiens, UniProt P20794)
[23] = target: MKNK2 (Homo sapiens, UniProt Q9HBH9)
MKNK2, sequence (Q9HBH9 whole entry): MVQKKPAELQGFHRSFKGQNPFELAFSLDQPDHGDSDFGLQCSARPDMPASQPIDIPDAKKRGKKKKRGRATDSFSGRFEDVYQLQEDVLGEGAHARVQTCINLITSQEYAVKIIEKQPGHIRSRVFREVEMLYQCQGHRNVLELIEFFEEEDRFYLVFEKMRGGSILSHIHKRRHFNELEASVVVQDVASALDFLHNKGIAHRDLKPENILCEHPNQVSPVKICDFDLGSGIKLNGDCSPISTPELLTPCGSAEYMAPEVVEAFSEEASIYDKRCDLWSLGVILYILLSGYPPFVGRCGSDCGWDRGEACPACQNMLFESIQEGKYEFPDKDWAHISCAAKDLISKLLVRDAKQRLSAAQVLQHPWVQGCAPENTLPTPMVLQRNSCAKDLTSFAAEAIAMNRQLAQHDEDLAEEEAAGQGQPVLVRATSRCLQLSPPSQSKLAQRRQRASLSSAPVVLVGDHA

[24] = target: T5, MRCKB (Homo sapiens, UniProt Q9Y5S2)
T5 construct: gene CDC42BPB

[25] = target: T6, NDR1 (Homo sapiens, UniProt Q15208)
T6 construct: gene STK38

[26] = target: NEK2 (Homo sapiens, UniProt P51955)
[27] = target: PDGFRA (Homo sapiens, UniProt P16234)
PDGFRA, sequence (P16234 whole entry): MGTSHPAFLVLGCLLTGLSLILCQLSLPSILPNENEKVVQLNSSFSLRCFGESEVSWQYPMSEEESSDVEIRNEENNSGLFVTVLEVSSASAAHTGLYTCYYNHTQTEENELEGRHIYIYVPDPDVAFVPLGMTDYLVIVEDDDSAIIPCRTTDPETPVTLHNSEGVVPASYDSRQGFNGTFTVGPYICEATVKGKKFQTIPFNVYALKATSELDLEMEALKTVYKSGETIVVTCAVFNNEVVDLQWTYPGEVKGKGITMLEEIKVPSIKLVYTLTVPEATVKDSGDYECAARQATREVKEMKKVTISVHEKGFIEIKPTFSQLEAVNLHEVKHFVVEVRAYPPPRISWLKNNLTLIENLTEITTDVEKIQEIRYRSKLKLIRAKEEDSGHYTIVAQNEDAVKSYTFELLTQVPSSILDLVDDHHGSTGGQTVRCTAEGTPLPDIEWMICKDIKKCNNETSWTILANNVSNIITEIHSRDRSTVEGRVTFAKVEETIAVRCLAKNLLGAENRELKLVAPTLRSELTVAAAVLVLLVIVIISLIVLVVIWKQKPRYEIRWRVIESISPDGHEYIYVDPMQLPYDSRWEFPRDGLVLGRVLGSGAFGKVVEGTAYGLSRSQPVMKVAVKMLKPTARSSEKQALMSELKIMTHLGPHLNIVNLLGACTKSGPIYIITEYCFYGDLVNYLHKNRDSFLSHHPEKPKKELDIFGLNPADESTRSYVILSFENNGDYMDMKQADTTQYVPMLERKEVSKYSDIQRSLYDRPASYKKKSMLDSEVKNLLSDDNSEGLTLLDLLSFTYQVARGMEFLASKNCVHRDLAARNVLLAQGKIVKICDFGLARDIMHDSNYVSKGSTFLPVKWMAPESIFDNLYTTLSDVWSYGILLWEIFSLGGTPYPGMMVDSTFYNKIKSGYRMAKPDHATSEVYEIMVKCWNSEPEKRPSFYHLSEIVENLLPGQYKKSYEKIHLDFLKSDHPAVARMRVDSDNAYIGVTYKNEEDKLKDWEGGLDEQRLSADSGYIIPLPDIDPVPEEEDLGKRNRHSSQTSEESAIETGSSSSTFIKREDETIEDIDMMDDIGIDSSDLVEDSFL

[28] = target: PIK3CA(Q546K) (Homo sapiens, UniProt P42336, Q546K)
[29] = target: ROS1 (Homo sapiens, UniProt P08922)
[30] = target: SGK2 (Homo sapiens, UniProt Q9HBY8)
[31] = target: SGK3 (Homo sapiens, UniProt Q96BR1)
[32] = target: TAOK1 (Homo sapiens, UniProt Q7L7X3)
[33] = target: TAOK3 (Homo sapiens, UniProt Q9H2K8)
[34] = target: TIE1 (Homo sapiens, UniProt P35590)
[35] = target: TNIK (Homo sapiens, UniProt Q9UKE5)

Molecule `Cc1cn(-c2cc(NC(=O)c3ccc4c(c3)CN(c3cncnc3)C[C@@H]4C)cc(C(F)(F)F)c2)cn1` [Compound 6j] has a remaining activity at 1 µM [1] of 77%, a remaining activity at 1 µM [2] of 82% and a remaining activity at 1 µM [3] of 95%. The remaining activity at 1 µM [4] was 100%, the remaining activity at 1 µM [5] was 100% and the remaining activity at 1 µM [6] was 84%. For the same molecule, the remaining activity at 1 µM [7] was 86%, the remaining activity at 1 µM [8] was 96% and the remaining activity at 1 µM [9] was 69%. For the same molecule, the remaining activity at 1 µM [10] was 82%, the remaining activity at 1 µM [11] was 100% and the remaining activity at 1 µM [12] was 95%. The remaining activity at 1 µM [13] was 92%, the remaining activity at 1 µM [14] was 56% and the remaining activity at 1 µM [15] was 96%. For the same molecule, the remaining activity at 1 µM [16] was 86%, the remaining activity at 1 µM [17] was 86% and the remaining activity at 1 µM [18] was 97%. For the same molecule, the remaining activity at 1 µM [19] was 100%, the remaining activity at 1 µM [20] was 77% and the remaining activity at 1 µM [21] was 100%. The remaining activity at 1 µM [22] was 95%, the remaining activity at 1 µM [23] was 100% and the remaining activity at 1 µM [24] was 94%. It also gave a remaining activity at 1 µM [25] of 98%, a remaining activity at 1 µM [26] of 95% and a remaining activity at 1 µM [27] of 100%. The remaining activity at 1 µM [28] was 100%, the remaining activity at 1 µM [29] was 86% and the remaining activity at 1 µM [30] was 100%. For the same molecule, the remaining activity at 1 µM [31] was 100%, the remaining activity at 1 µM [32] was 100% and the remaining activity at 1 µM [33] was 100%. The remaining activity at 1 µM [34] was 74% and the remaining activity at 1 µM [35] was 86%.
